# Reference: patent US7138418B2, “Pentafluorobenzenesulfonamides and analogs” (Amgen, Inc., priority 1996, dated 2006)
# Test system: LDL receptor expression in Hep G2 cells
# Experiment: LDL receptor expression in Hep G2 cells by western-blot analysis
# Assay type: cell-based
# Conditions: Homo sapiens, HepG2, minimum concentration at which a maximal induction of LDL receptor was observed
# Method: Compounds may be evaluated in vitro for their ability to increase LDL receptor expression using western-blot analysis, for example, as described in Tam et al. (1991) J. Biol. Chem. 266, 16764. Established animal models to evaluate hypocholesterolemic effects of compounds are known in the art. […] 81, 300; Evans et al. (1994) J. Lipid Res. 35, 1634; Lin et al (1995) J. Med. Chem. 38, 277.
# Compounds were evaluated for their ability to increase LDL receptor expression in Hep G2 cells using western-blot analysis as described in Tam et al., J. Biol. Chem., 266, 16764 (1991).
row,SMILES,EC (max) [µM]
1,"CN(C)c1ccc(NS(=O)(=O)c2c(F)c(F)c(F)c(F)c2F)cc1 [Example 1, 4-(N,N-Dimethylamino)-1-pentafluorophenylsulfonamidobenzene]",0.5
2,"CN(C)c1cccc(NS(=O)(=O)c2c(F)c(F)c(F)c(F)c2F)c1 [Example 2, 3-(N,N-Dimethylamino)-1-pentafluorophenylsulfonamidobenzene]",5
3,"O=S(=O)(Nc1ccc2c(c1)OCCO2)c1c(F)c(F)c(F)c(F)c1F [Example 3, 1,2-Ethylenedioxy-4-pentafluorophenylsulfonamidobenzene]",5
4,"O=S(=O)(Nc1ccc2c(c1)OCO2)c1c(F)c(F)c(F)c(F)c1F [Example 4, 1,2-Methylenedioxy-4-pentafluorophenylsulfonamidobenzene]",≤ 5
5,"COc1ccc(NS(=O)(=O)c2c(F)c(F)c(F)c(F)c2F)cc1O [Example 6, 2-Hydroxy-1-methoxy-4-pentafluorophenylsulfonamidobenzene]",0.15
6,"COc1ccc(NS(=O)(=O)c2c(F)c(F)c(F)c(F)c2F)cc1 [Example 8, 4-Methoxy-1-pentafluorophenylsulfonamidobenzene]",0.5
7,"O=S(=O)(Nc1cccc(O)c1)c1c(F)c(F)c(F)c(F)c1F [Example 9, 3-Hydroxy-1-pentafluorophenylsulfonamidobenzene]",5
8,"CCN(CC)c1ccc(NS(=O)(=O)c2c(F)c(F)c(F)c(F)c2F)cc1 [Example 12, 4-(N,N-Diethylamino)-1-pentafluorophenylsulfonamidobenzene]",5
9,"O=S(=O)(Nc1ccc2[nH]ncc2c1)c1c(F)c(F)c(F)c(F)c1F [Example 15, 5-Pentafluorophenylsulfonamidoindazole]",15
10,"CN(C)c1ccc(N(C)S(=O)(=O)c2c(F)c(F)c(F)c(F)c2F)cc1 [Example 17, 4-(N,N-Dimethylamino)-1-(N-methylpentafluorophenylsulfonamido)benzene]",5
11,"COc1cccc(NS(=O)(=O)c2c(F)c(F)c(F)c(F)c2F)c1 [Example 24, 3-Methoxy-1-pentafluorophenylsulfonamidobenzene]",15
12,"O=S(=O)(Nc1ccc(N2CCOCC2)cc1)c1c(F)c(F)c(F)c(F)c1F [Example 25, 4-(1-Morpholino)-1-pentafluorophenylsulfonamidobenzene]",15
13,"COc1ccc(N(C)S(=O)(=O)c2c(F)c(F)c(F)c(F)c2F)cc1F [Example 30, 2-Fluoro-1-methoxy-4-(N-methylpentafluorophenylsulfonamido)benzene]",15
14,"COc1ccc(NS(=O)(=O)c2c(F)c(F)c(F)c(F)c2F)cc1Br [Example 31, 2-Bromo-1-methoxy-4-pentafluorophenylsulfonamidobenzene]",≤ 5
15,"COc1ccc(NS(=O)(=O)c2c(F)c(F)c(F)c(F)c2F)cc1Cl [Example 32, 2-Chloro-1-methoxy-4-pentafluorophenylsulfonamidobenzene]",1.5

# Test system: not given
# Experiment: not given
# Conditions: not given
row,SMILES,melting point [°C]
1,"COc1ccc(NS(=O)(=O)c2c(F)c(F)c(F)c(F)c2F)cc1 [Example 8, 4-Methoxy-1-pentafluorophenylsulfonamidobenzene]",102 to 103
2,"O=S(=O)(Nc1ccc(Cl)nc1)c1c(F)c(F)c(F)c(F)c1F [Example 36, 2-Chloro-5-pentafluorophenylsulfonamidopyridine]",144 to 145
3,"COc1ccc(N(CCCCCO)S(=O)(=O)c2c(F)c(F)c(F)c(F)c2F)cc1O [Example 37, 2-Hydroxy-1-methoxy-4-(N-(5-hydroxypentyl)-pentafluorophenylsulfonamido)benzene]",118
4,"COc1cc(Br)c(NS(=O)(=O)c2c(F)c(F)c(F)c(F)c2F)cc1F [Example 41, 1-Bromo-4-fluoro-5-methoxy-2-pentafluorophenylsulfonamidobenzene]",109

# Next, values leading:
row,melting point [°C],SMILES
1,121 to 123,"COc1ccc(NS(=O)(=O)c2c(F)c(F)c(F)c(F)c2F)cc1C(F)(F)F [Example 49, 4-Methoxy-1-pentafluorophenylsulfonamido-3-trifluoromethylbenzene]"
2,59 to 60,"C=CCN(c1ccc(OC)cc1)S(=O)(=O)c1c(F)c(F)c(F)c(F)c1F [Example 50, 4-Methoxy-1-(N-(2-propenyl)pentafluorophenylsulfonamido)benzene]"
3,64 to 66,"C=CCCN(c1ccc(OC)cc1)S(=O)(=O)c1c(F)c(F)c(F)c(F)c1F [Example 51, 1-(N-(3-Butenyl)pentafluorophenylsulfonamido)-4-methoxybenzene]"
4,130 to 131,"COc1ccc(N(CC(O)CO)S(=O)(=O)c2c(F)c(F)c(F)c(F)c2F)cc1 (centres unmarked) [Example 53, 1-(N-(2,3-Dihydroxypropyl)pentafluorophenylsulfonamido)-4-methoxybenzene]"
5,126 to 128,"COc1ccc(N(CCC(O)CO)S(=O)(=O)c2c(F)c(F)c(F)c(F)c2F)cc1 (centres unmarked) [Example 54, 1-(N-(3,4-Dihydroxybutyl)pentafluorophenylsulfonamido)-4-methoxybenzene]"
6,116 to 118,"COc1ccc(N(CCCC(O)CO)S(=O)(=O)c2c(F)c(F)c(F)c(F)c2F)cc1 (centres unmarked) [Example 55, 1-(N-(4,5-Dihydroxypentyl)pentafluorophenylsulfonamido)-4-methoxybenzene]"
7,88 to 90,"COc1ccc(N(CCCCO)S(=O)(=O)c2c(F)c(F)c(F)c(F)c2F)cc1 [Example 56, 1-(N-(4-hydroxybutyl)pentafluorophenylsulfonamido)-4-methoxybenzene]"
8,96 to 97,"COc1ccc(N(CCCCCO)S(=O)(=O)c2c(F)c(F)c(F)c(F)c2F)cc1 [Example 57, 4-Methoxy-1-(N-(5-hydroxypentyl)pentafluorophenylsulfonamido)benzene]"
9,95 to 97,"COc1ccc(NS(=O)(=O)c2c(F)c(F)c(F)c(F)c2F)cc1[N+](=O)[O-] [Example 58, 4-Methoxy-3-nitro-1-pentafluorophenylsulfonamidobenzene]"
10,142 to 143,"COc1ccc(NS(=O)(=O)c2c(F)c(F)c(F)c(F)c2F)cc1N [Example 59, 3-Amino-4-methoxy-1-pentafluorophenylsulfonamidobenzene]"
